Results from ChEMBL document CHEMBL4483862, “Open-source discovery of chemical leads for next-generation chemoprotective antimalarials” (2018).

System: Plasmodium berghei
Experiment: Luciferase/luciferin-expressing antifolate-resistant parasites were used to infect a culture of HepG2 cells that were pre-incubated with compounds. Infected hepatocytes emit light due to the luciferase reaction. Assay results are presented as the percent inhibition of light emission compared to control. […]
Format: functional
Settings: sporozoite; for IC90: read-out: LUCIFERASE INFECTION ASSAY - IC90

Cc1ccc2cccc(Oc3ncnc4scc(-c5ccccc5)c34)c2n1 gave an IC50 (HEPG2TOX_HILL_SLOPE 0.0481, HEPG2TOX_R_SQUARED 0.388, PBLUC_HILL_SLOPE 1.34, PBLUC_R_SQUARED 0.656, read-out: LUCIFERASE INFECTION ASSAY - IC50) of 5.34 µM and an IC90 of over 10 µM.

Work on COc1ccc(C(=O)NCC#Cc2cccc(C(F)(F)F)c2)cn1 yielded an IC50 (FFLUC_HILL_SLOPE 300, FFLUC_R_SQUARED 0.355, read-out: LUCIFERASE INFECTION ASSAY - IC50) of over 10 µM and an IC90 of over 10 µM.

Cc1cccc(C(=O)Nc2cc(S(=O)(=O)N3CCOCC3)ccc2N2CCCCC2)n1 showed an IC50 (HEPG2TOX_HILL_SLOPE 0.0521, HEPG2TOX_R_SQUARED 0.112, read-out: LUCIFERASE INFECTION ASSAY - IC50) of over 10 µM and an IC90 of over 10 µM.

O=C1COc2ccc(-c3cs/c(=N\c4cc(S(=O)(=O)N5CCOCC5)ccc4Cl)n3C3CC3)cc2N1 gave an IC50 (FFLUC_HILL_SLOPE 592, FFLUC_R_SQUARED 0.24, HEPG2TOX_HILL_SLOPE 8.86, HEPG2TOX_R_SQUARED 0.733, PBLUC_HILL_SLOPE 5.17, PBLUC_R_SQUARED 0.255, read-out: LUCIFERASE INFECTION ASSAY - IC50) of 8.04 µM and an IC90 of over 10 µM.

O=C1C=CC(=O)N1c1ccc(Cl)cc1Cl gave an IC50 (FFLUC_HILL_SLOPE 227, FFLUC_R_SQUARED 0.205, read-out: LUCIFERASE INFECTION ASSAY - IC50) of over 13.6 µM and an IC90 of over 13.6 µM.

Cc1nc(=O)c2c(C)c(C(=O)OCC(=O)/C=C3\N(C)c4ccccc4C3(C)C)sc2[nH]1 was tested, and the IC50 (HEPG2TOX_HILL_SLOPE 0.0151, HEPG2TOX_R_SQUARED 0.0709, PBLUC_HILL_SLOPE 3.19, PBLUC_R_SQUARED 0.563, read-out: LUCIFERASE INFECTION ASSAY - IC50) was 6.65 µM and the IC90 was over 10 µM.

CCCc1ccc(-c2csc(NC(=O)CC(NC(=O)c3ccccc3Cl)c3ccccc3)n2)cc1 (centres undefined) was tested, and the IC50 (FFLUC_HILL_SLOPE 390, FFLUC_R_SQUARED 0.412, read-out: LUCIFERASE INFECTION ASSAY - IC50) was over 10 µM and the IC90 was over 10 µM.

With CCCOc1ccc(/C=C/C(=O)Nc2ccc(Br)c(C(F)(F)F)c2)cc1OCC the IC50 (FFLUC_HILL_SLOPE 178, FFLUC_R_SQUARED 0.15, HEPG2TOX_HILL_SLOPE 0.174, HEPG2TOX_R_SQUARED 0.586, PBLUC_HILL_SLOPE 2.73, PBLUC_R_SQUARED 0.361, read-out: LUCIFERASE INFECTION ASSAY - IC50) was 7.97 µM and the IC90 was over 10 µM.

Work on CN(C(=O)c1cc(-c2ccccc2OCc2ccccc2)ncn1)c1ccccc1 yielded an IC50 (HEPG2TOX_HILL_SLOPE 0.0237, HEPG2TOX_R_SQUARED 0.016, PBLUC_HILL_SLOPE 4.42, PBLUC_R_SQUARED 0.717, read-out: LUCIFERASE INFECTION ASSAY - IC50) of 3.04 µM and an IC90 of 5 µM.

CC(C)=CC(=O)Nc1scc(-c2ccccc2)c1C(=O)OCC(=O)Nc1ccc([N+](=O)[O-])cc1Cl showed an IC50 (HEPG2TOX_HILL_SLOPE 0.0482, HEPG2TOX_R_SQUARED 0.161, PBLUC_HILL_SLOPE 2.32, PBLUC_R_SQUARED 0.465, read-out: LUCIFERASE INFECTION ASSAY - IC50) of 5.35 µM and an IC90 of over 10 µM.

CCN(CC)c1nc2c3c(nc4c(c3c1C#N)CC(c1ccccc1)O4)NC1(CCCCC1)N2 (centres undefined) showed an IC50 (FFLUC_HILL_SLOPE 304, FFLUC_R_SQUARED 0.442, PBLUC_HILL_SLOPE 2.01, PBLUC_R_SQUARED 0.722, read-out: LUCIFERASE INFECTION ASSAY - IC50) of 6.1 µM and an IC90 of over 10 µM.

Oc1cc2[nH]c3ccccc3c2cc1CN1CCN(Cc2cccs2)CC1 was tested, and the IC50 (HEPG2TOX_HILL_SLOPE 0.0488, HEPG2TOX_R_SQUARED 0.0234, PBLUC_HILL_SLOPE 24, PBLUC_R_SQUARED 0.263, read-out: LUCIFERASE INFECTION ASSAY - IC50) was 9.5 µM and the IC90 was over 10 µM.

O=C(C1COc2ccccc2C1)N(Cc1ccccc1)c1ccccn1 (centres undefined) gave an IC50 (HEPG2TOX_HILL_SLOPE 0.0154, HEPG2TOX_R_SQUARED 0.0147, read-out: LUCIFERASE INFECTION ASSAY - IC50) of over 10 µM and an IC90 of over 10 µM.

With CCCCCCCc1ccc(NC(=O)Nc2ccc(F)cc2)cc1 the IC50 (FFLUC_HILL_SLOPE 255, FFLUC_R_SQUARED 0.421, PBLUC_HILL_SLOPE 1.52, PBLUC_R_SQUARED 0.706, read-out: LUCIFERASE INFECTION ASSAY - IC50) was 2.49 µM and the IC90 was over 10 µM.

Work on CCOC(=O)c1sc(SCc2ccc(Cl)cc2)c2c1CCCC2=O yielded an IC50 (FFLUC_HILL_SLOPE 175, FFLUC_R_SQUARED 0.438, PBLUC_HILL_SLOPE 6.18, PBLUC_R_SQUARED 0.111, read-out: LUCIFERASE INFECTION ASSAY - IC50) of over 8.66 µM and an IC90 of over 8.66 µM.

In the case of Cc1cc(N2CCN(c3cnn(-c4nc5ccccc5[nH]4)c(=O)c3Cl)CC2)nc(C(C)C)n1, the IC50 (HEPG2TOX_HILL_SLOPE 0.0256, HEPG2TOX_R_SQUARED 0.0179, PBLUC_HILL_SLOPE 3.18, PBLUC_R_SQUARED 0.351, read-out: LUCIFERASE INFECTION ASSAY - IC50) is reported as 3.68 µM and the IC90 is reported as 7.33 µM.

CC1c2ccsc2CCN1C(=S)NC(=O)c1ccc(C(C)(C)C)cc1 (centres undefined) showed an IC50 (HEPG2TOX_HILL_SLOPE 0.0482, HEPG2TOX_R_SQUARED 0.0333, read-out: LUCIFERASE INFECTION ASSAY - IC50) of over 8.86 µM and an IC90 of over 8.86 µM.

O=C(Cc1csc(-c2ccccc2Cl)n1)Nc1cnc2ccccc2c1 was tested, and the IC50 (HEPG2TOX_HILL_SLOPE 0.041, HEPG2TOX_R_SQUARED 0.0816, read-out: LUCIFERASE INFECTION ASSAY - IC50) was over 10 µM and the IC90 was over 10 µM.

OCCNCc1cc(Cl)ccc1OCc1ccc(Cl)cc1Cl showed an IC50 (HEPG2TOX_HILL_SLOPE 0.0281, HEPG2TOX_R_SQUARED 0.0269, read-out: LUCIFERASE INFECTION ASSAY - IC50) of over 8.31 µM and an IC90 of over 8.31 µM.

Compound O=C1C(=C2NC(c3cccc(C(F)(F)F)c3)=CS2)Sc2ccccc21 has an IC50 (FFLUC_HILL_SLOPE 302, FFLUC_R_SQUARED 0.711, PBLUC_HILL_SLOPE 16.1, PBLUC_R_SQUARED 0.464, read-out: LUCIFERASE INFECTION ASSAY - IC50) of 2.83 µM and an IC90 of 3.25 µM.

Cc1cc(C(=O)C(C)OC(=O)CCc2nc(=O)c3ccccc3[nH]2)c(C)n1-c1ccc(Cl)cc1 (centres undefined) showed an IC50 (HEPG2TOX_HILL_SLOPE 0.024, HEPG2TOX_R_SQUARED 0.0218, read-out: LUCIFERASE INFECTION ASSAY - IC50) of over 10 µM and an IC90 of over 10 µM.

O=C(c1ccc([N+](=O)[O-])o1)N1CCc2sccc2C1c1ccccc1 (centres undefined) showed an IC50 (HEPG2TOX_HILL_SLOPE 0.0396, HEPG2TOX_R_SQUARED 0.037, PBLUC_HILL_SLOPE 3.01, PBLUC_R_SQUARED 0.32, read-out: LUCIFERASE INFECTION ASSAY - IC50) of 6.65 µM and an IC90 of over 10 µM.

In the case of O=[N+]([O-])c1ccc(S(=O)(=O)c2ccc(C(F)(F)F)cn2)nc1, the IC50 (FFLUC_HILL_SLOPE 150, FFLUC_R_SQUARED 0.542, HEPG2TOX_HILL_SLOPE 3, HEPG2TOX_R_SQUARED 0.956, PBLUC_HILL_SLOPE 6.23, PBLUC_R_SQUARED 0.341, read-out: LUCIFERASE INFECTION ASSAY - IC50) is reported as 4.49 µM and the IC90 is reported as 6.39 µM.

CCCCCCN(C(=O)Cn1ccsc1=N)c1nc(-c2ccccc2)cs1 was tested, and the IC50 (FFLUC_HILL_SLOPE 258, FFLUC_R_SQUARED 0.634, read-out: LUCIFERASE INFECTION ASSAY - IC50) was over 10 µM and the IC90 was over 10 µM.

For CC(C)(C)c1cc(-c2csc(CS(=O)(=O)Cc3cccc(C(F)(F)F)c3)n2)cc(C(C)(C)C)c1O, the IC50 (FFLUC_HILL_SLOPE 261, FFLUC_R_SQUARED 0.0541, PBLUC_HILL_SLOPE 0.448, PBLUC_R_SQUARED 0.195, read-out: LUCIFERASE INFECTION ASSAY - IC50) was over 6.28 µM and the IC90 was over 6.28 µM.

With FC(F)(F)c1cc(NC(=S)N2CCC(CCCC3CCN(C(=S)Nc4cc(C(F)(F)F)cc(C(F)(F)F)c4)CC3)CC2)cc(C(F)(F)F)c1 the IC50 (FFLUC_HILL_SLOPE 260, FFLUC_R_SQUARED 0.348, HEPG2TOX_HILL_SLOPE 8.4, HEPG2TOX_R_SQUARED 0.678, PBLUC_HILL_SLOPE 17.9, PBLUC_R_SQUARED 0.0888, read-out: LUCIFERASE INFECTION ASSAY - IC50) was over 4.38 µM and the IC90 was over 4.38 µM.

Compound COc1ccc(CN2C(=O)c3ccccc3C(C=NNC(=O)Cc3cccn3C)C2=O)cc1 (centres undefined) has an IC50 (FFLUC_HILL_SLOPE 212, FFLUC_R_SQUARED 0.138, HEPG2TOX_HILL_SLOPE 1.34, HEPG2TOX_R_SQUARED 0.84, PBLUC_HILL_SLOPE 13.5, PBLUC_R_SQUARED 0.236, read-out: LUCIFERASE INFECTION ASSAY - IC50) of 3.64 µM and an IC90 of 4.28 µM.

In the case of O=C(NC1CC1)c1ccc(-c2cnc3cnc(-c4ccsc4)cn23)cc1, the IC50 (HEPG2TOX_HILL_SLOPE 0.0389, HEPG2TOX_R_SQUARED 0.0745, PBLUC_HILL_SLOPE 3.06, PBLUC_R_SQUARED 0.597, read-out: LUCIFERASE INFECTION ASSAY - IC50) is reported as 7.19 µM and the IC90 is reported as over 9.16 µM.

Work on COc1cccc(C(c2c(-c3ccccc3)n(O)c3ccccc23)N2CCOCC2)c1 (centres undefined) yielded an IC50 (FFLUC_HILL_SLOPE 161, FFLUC_R_SQUARED 0.573, read-out: LUCIFERASE INFECTION ASSAY - IC50) of over 10 µM and an IC90 of over 10 µM.

In the case of C=CCN(c1ccccc1Cl)S(=O)(=O)c1cc(C(=O)NCc2cn3cc(Cl)ccc3n2)ccc1Cl, the IC50 (FFLUC_HILL_SLOPE 155, FFLUC_R_SQUARED 0.0996, read-out: LUCIFERASE INFECTION ASSAY - IC50) is reported as over 10 µM and the IC90 is reported as over 10 µM.

In the case of CC(=O)Nc1cccc(-c2cn3c(-c4ccc(Oc5ccccc5)cc4)cnc3cn2)c1, the IC50 (HEPG2TOX_HILL_SLOPE 0.0216, HEPG2TOX_R_SQUARED 0.0103, PBLUC_HILL_SLOPE 2.46, PBLUC_R_SQUARED 0.352, read-out: LUCIFERASE INFECTION ASSAY - IC50) is reported as over 7.85 µM and the IC90 is reported as over 7.85 µM.

CCn1c(-c2ccccc2)c(C(=O)COc2ccc(F)cc2Br)c2ccccc21 showed an IC50 (FFLUC_HILL_SLOPE 1400, FFLUC_R_SQUARED 0.245, read-out: LUCIFERASE INFECTION ASSAY - IC50) of over 10 µM and an IC90 of over 10 µM.
